Patent US20060223879A1, “Non-steroidal farnesoid x receptor modulators” (priority 2002, published 2006)
pEC50: −log10 of the molar value. “And” between values parts separate entries of the source, which are not always exact repeats. Equal values may be shown once. Read-outs that look alike come from different tables or passages of the source.

Target: T1, FXR (Homo sapiens, UniProt Q96RI1)
T1 construct: using a full length FXR on a natural response element; expressed in transfected cells
T1 sequence (Q96RI1 1-486): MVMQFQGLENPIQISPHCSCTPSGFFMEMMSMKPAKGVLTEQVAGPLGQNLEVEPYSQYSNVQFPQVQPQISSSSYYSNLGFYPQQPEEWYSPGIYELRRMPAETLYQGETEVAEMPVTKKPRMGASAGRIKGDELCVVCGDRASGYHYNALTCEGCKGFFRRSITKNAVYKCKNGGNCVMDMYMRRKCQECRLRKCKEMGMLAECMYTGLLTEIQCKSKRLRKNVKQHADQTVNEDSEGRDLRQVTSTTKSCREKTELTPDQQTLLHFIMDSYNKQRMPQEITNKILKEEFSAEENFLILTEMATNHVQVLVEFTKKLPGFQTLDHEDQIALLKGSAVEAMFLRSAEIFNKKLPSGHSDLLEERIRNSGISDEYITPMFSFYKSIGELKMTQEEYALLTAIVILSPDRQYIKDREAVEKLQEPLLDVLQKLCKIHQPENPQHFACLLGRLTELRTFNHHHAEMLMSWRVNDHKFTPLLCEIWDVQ
Assay: cell-based transcription assay, FXR responsive promoter linked to a luciferase reporter
Parameters: RE: scale not given here
Conditions: for RE: RE not defined in the source
Text: In addition to ensuring that only cell permeable compounds were selected for further optimization, this approach allows for the detection of FXR activation in a natural system (i.e., correct folding of the protein and in the presence of a complete compliment of co-activators and co-repressors).
The feasibility of creating high throughput screens (XIS) for ORs was explored using FXR as a candidate orphan receptor (OR) with a known activator, chenodeoxycholic acid (CDCA) as a ligand. The screen is based on the co-transfection of a full-length receptor with the reporter vector containing a natural hormone response element under a minimal eukaryotic promoter. […] Using this 384-well format, the high throughput screening (HTS) approach to FXR as a candidate OR was employed. […] A central question in the feasibility studies is whether this library is suitable for screening for nuclear receptor ligands. Samples of this library were first reformatted into a 384-well format and then subjected to the FXR cell-based assays described above and assessed for FXR-mediated transcriptional activity. Cells were exposed to approximately 10 μM of sample for 18 hrs prior to washing and luciferase analysis.
EC50 values were determined with Prism 3.0 software via the activity of the subject compound in the previously described cell based assay.

[1] = Tables 1-15, FXR activation, cell-based reporter assay, read-out: EC50
[2] = library screening hits and leads, read-out: activity (EC50)
[3] = FXR activation, cell-based reporter assay, read-out: EC50

Row | pEC50 [1] | RE (Tables 1-15) | pEC50 [2] | pEC50 [3] | FXR activation (in words) (cell-based reporter assay) | Compound
1 | 6.88 | 1.38 | – | – | – | COC(=O)/C=C/c1cccc(N(Cc2ccc(-c3ccc(C(C)(C)C)cc3)cc2)C(=O)C2CCCCC2)c1 [Compound 262]
2 | – | – | 5.00 to 5.30 | – | – | COc1cc(CN(CC(C)C)C(=O)C2CCCCC2)cc2c1OC(C)(C)C=C2 [Compound 16]
3 | 6.37 | 0.89 | – | – | – | COC(=O)/C=C/c1cccc(N(Cc2ccc(/C=C/c3ccccc3F)cc2)C(=O)NC(C)C)c1 [Compound 194]
4 | – | 2.12 | – | 6.90 and 6.60 to 6.90 | – | COC(=O)/C=C/c1cccc(N(Cc2ccc(/C=C/C(=O)OC(C)(C)C)cc2)C(=O)C2CCCCC2)c1 [Compound 105]
5 | – | RE^a = 1.38 | – | 6.56 | – | COC(=O)CCc1cccc(N(Cc2ccc(/C=C/C(=O)OC(C)(C)C)cc2)C(=O)C2CCCCC2)c1 [Compound 139]
6 | 6.83 | 0.30 | – | – | – | COC(=O)/C=C/c1cccc(N(Cc2ccc(/C=C/c3c(C)cc(C)cc3C)cc2)C(=O)C(C)C)c1 [Compound 196]
7 | < 6.00 | 0.64 | – | – | only micromolar activity | COC(=O)C=Cc1cccc(N(Cc2ccc(C=CCOc3ccccc3)cc2)C(=O)C2CCCCC2)c1 [Compound 158]
8 | < 6.00 | 0.11 | – | – | – | COC(=O)/C=C/c1cccc(N(Cc2cccc(OC)c2)C(=O)C2CCCCC2)c1 [Compound 115]
9 | 6.83 | 1.37 | – | – | – | CCOc1cccc(-c2ccc(CN(C(=O)C3CCCCC3)c3cccc(/C=C/C(=O)OC)c3)cc2)c1 [Compound 226]
10 | 6.79 | 1.01 | – | – | – | COC(=O)/C=C/c1cccc(N(Cc2ccc(-c3ccc(N(C)C)cc3)cc2)C(=O)NC(C)C)c1 [Compound 261]
11 | 7.11 | 0.12 | – | – | excellent activity | COC(=O)/C=C/c1cccc(N(Cc2ccc(-c3c(OC)cccc3OC)cc2)C(=O)C2CCCCC2)c1 [Compound 256]
12 | < 6.00 | 0.16 | – | – | – | COC(=O)C=Cc1cccc(N(Cc2ccc(C=CC(=O)OC(C)(C)C)cc2OC(=O)c2ccccc2)C(=O)C2CCCCC2)c1 [Compound 165]
13 | 7.15 | 1.33 | – | – | excellent activity | COC(=O)/C=C/c1cccc(N(Cc2ccc(/C=C/c3cccc(F)c3)cc2)C(=O)C(C)C)c1 [Compound 202]
14 | – | – | – | – | did not improve the activity | COC(=O)/C=C/c1cccc(N(Cc2ccc3c(c2OC)OC(C)(C)C=C3C(=O)O)C(=O)c2ccccc2)c1 [Compound 86]
15 | 5.63 | 0.33 | – | – | – | CCOc1cccc(-c2ccc(CN(C(=O)NC(C)C)c3cccc(/C=C/C(=O)OC)c3)cc2)c1 [Compound 228]
16 | – | – | – | – | only micromolar potency | COC(=O)/C=C/c1cccc(N(Cc2ccccc2/C=C/C(=O)OC(C)(C)C)C(=O)C2CCCCC2)c1 [Compound 109]
17 | < 6.00 | 0.08 | – | – | – | COC(=O)C=Cc1cccc(N(Cc2ccc(C=CC(=O)O)cc2)C(=O)C2CCCCC2)c1 [Compound 104]
18 | 6.78 | 1.41 | – | – | excellent activity | COC(=O)C=Cc1cccc(N(Cc2ccc(C=Cc3cccc(Cl)c3)cc2)C(=O)C2CCCCC2)c1 [Compound 180]
19 | 6.42 | 0.28 | – | – | – | COC(=O)/C=C/c1cccc(N(Cc2ccc(-c3ccccc3OC)cc2)C(=O)C(C)C)c1 [Compound 219]
20 | 6.60 | 1.15 | – | – | – | COC(=O)/C=C/c1cccc(N(Cc2ccc(-c3ccc(F)c(F)c3)cc2)C(=O)C(C)C)c1 [Compound 214]
21 | 6.24 | 0.68 | – | – | – | COC(=O)C=Cc1cccc(N(Cc2ccc(C=Cc3ccccn3)cc2)C(=O)NC(C)C)c1 [Compound 209]
22 | 6.45 | 0.42 | – | – | – | COC(=O)C=Cc1cccc(N(Cc2ccc(C=Cc3scnc3C)cc2)C(=O)NC(C)C)c1 [Compound 212]
23 | 5.88 | 0.53 | – | – | – | COC(=O)/C=C/c1cccc(N(Cc2ccc(-c3cccc(C)c3)cc2)C(=O)NC(C)C)c1 [Compound 240]
24 | – | – | – | – | only micromolar potency | COC(=O)/C=C/c1cccc(N(Cc2cccc(/C=C/C(=O)OC(C)(C)C)c2)C(=O)C2CCCCC2)c1 [Compound 107]
25 | – | – | 5.00 to 5.30 | – | among the most active at this stage | COc1c(CN(C(=O)C2CCCCC2)c2ccccc2)ccc2c1OC(C)(C)C=C2 [Compound 27]

Row | pEC50 [1] | RE (Tables 1-15) | pEC50 [2] | pEC50 [3] | FXR activation (in words) (cell-based reporter assay) | Compound
26 | 6.64 | 0.32 | – | – | – | COC(=O)C=Cc1cccc(N(Cc2ccc(C=Cc3scnc3C)cc2)C(=O)C(C)C)c1 [Compound 211]
27 | < 6.00 | 0.84 | – | – | – | CC(C)(C)OC(=O)/C=C/c1cccc(N(Cc2ccc(CCC(=O)OC(C)(C)C)cc2)C(=O)C2CCCCC2)c1 [Compound 160]
28 | < 6.00 | 0.28 | – | – | – | COC(=O)/C=C/c1cccc(N(Cc2ccc(Br)cc2)C(=O)C2CCCCC2)c1 [Compound 112]
29 | – | 1.90 | – | 7.42 | excellent activity | COC(=O)/C=C/c1cccc(N(Cc2ccc(-c3ccc4c(c3)OCO4)cc2)C(=O)C2CCCCC2)c1 [Compound 244]
30 | 7.14 | – | – | – | excellent activity | COC(=O)/C=C/c1cccc(N(Cc2ccc(-c3cccc(OC)c3)cc2)C(=O)C(C)C)c1 [Compound 224]
31 | – | – | – | – | excellent activity | COC(=O)/C=C/c1cccc(N(Cc2ccc(-c3cccc(Cl)c3)cc2)C(=O)C(C)C)c1 [Compound 233]
32 | < 6.00 | 0.09 | – | – | – | COC(=O)/C=C/c1cccc(NC(=O)C2CCCCC2)c1 [Compound 132]
33 | < 6.00 | 0.12 | – | – | – | COC(=O)/C=C/c1cccc(N(Cc2cccc(C(F)(F)F)c2)C(=O)C2CCCCC2)c1 [Compound 117]
34 | – | – | – | – | inactive | CNC(=O)/C=C/c1cccc(N(Cc2ccc3c(c2OC)OC(C)(C)C=C3)C(=O)C2CC2)c1 [Compound 38]
35 | – | – | 5.00 to 5.30 | – | – | COc1c(CN(C(=O)c2ccccc2C(=O)O)c2ccncc2)ccc2c1OC(C)(C)C=C2 [Compound 17]
36 | < 6.00 | 0.14 | – | – | – | COC(=O)C=Cc1cccc(N(Cc2ccc(C=CC(=O)OC(C)(C)C)cc2OC)C(=O)C2CCCCC2)c1 [Compound 162]
37 | – | – | – | – | inactive | COC(=O)/C=C/c1cccc(N(C)Cc2ccc3c(c2OC)OC(C)(C)C=C3)c1 [Compound 79]
38 | 6.92 | 1.38 | – | – | – | COC(=O)/C=C/c1cccc(N(Cc2ccc(/C=C/c3ccccc3)cc2)C(=O)NC(C)C)c1 [Compound 200]
39 | 7.24 | 1.07 | – | – | excellent activity | COC(=O)/C=C/c1cccc(N(Cc2ccc(-c3ccc(N(C)C)cc3)cc2)C(=O)C(C)C)c1 [Compound 260]
40 | – | – | – | – | did not improve the activity | COC(=O)C=Cc1cccc(N(Cc2ccc3c(c2OC)OC(C)(C)C(O)C3O)C(=O)c2ccccc2)c1 (stereo not shown) [Compound 94]
41 | 7.19 | 1.33 | – | – | excellent activity | COC(=O)/C=C/c1cccc(N(Cc2ccc(/C=C/c3ccccc3)cc2)C(=O)C(C)C)c1 [Compound 198]
42 | – | 0.15 | – | – | – | COC(=O)/C=C/c1cccc(N(Cc2ccc(/C=C/c3c(Cl)cccc3Cl)cc2)C(=O)NC(C)C)c1 [Compound 179]
43 | < 6.00 | 0.50 | – | – | marked decline in potency | CC(C)(C)OC(=O)C=Cc1ccc(CN(C(=O)C2CCCCC2)c2cccc(C=CC(N)=O)c2)cc1 [Compound 135]
44 | – | – | – | – | did not improve the activity | COC(=O)/C=C/c1cccc(N(Cc2ccc3c(c2OC)OC(C)(C)[C@@H](O)[C@H]3O)C(=O)c2ccccc2)c1 [Compound 93]
45 | 6.82 | 0.12 | – | – | excellent activity | COC(=O)/C=C/c1cccc(N(Cc2ccc(/C=C/c3c(Cl)cccc3Cl)cc2)C(=O)C2CCCCC2)c1 [Compound 177]
46 | – | 2.06 | – | 6.70 | – | CCOCC=Cc1ccc(CN(C(=O)C2CCCCC2)c2cccc(C=CC(=O)OC)c2)cc1 [Compound 157]
47 | < 6.00 | 0.09 | – | – | – | COC(=O)/C=C/c1cccc(N(C)C(=O)C2CCCCC2)c1 [Compound 147]
48 | 5.85 | 0.49 | – | – | – | COC(=O)/C=C/c1cccc(N(Cc2ccc(-c3cccc(Cl)c3)cc2)C(=O)NC(C)C)c1 [Compound 234]
49 | – | – | 5.00 to 5.30 | – | – | COc1cc(CN(C(=O)CC(C)C)c2ccccc2)cc2c1OC(C)(C)C=C2 [Compound 24]
50 | < 6.00 | 0.15 | – | – | – | COC(=O)/C=C/c1cccc(N(Cc2ccc(C(C)(C)C)cc2)C(=O)C2CCCCC2)c1 [Compound 148]
